In patent publication US9833490B1, “Drug combination for the treatment of infertility and its preparation methods and applications” (SICHUAN SHANZE BIOTECH.,LTD., priority 2017, dated 2017):

Target: xanthine oxidase (Homo sapiens, UniProt P47989)
Assay: Xanthine oxidase inhibitory activity
Type: biochemical
Details: relative to allopurinol

Chain of xanthine oxidase (P47989 whole entry, species assumed): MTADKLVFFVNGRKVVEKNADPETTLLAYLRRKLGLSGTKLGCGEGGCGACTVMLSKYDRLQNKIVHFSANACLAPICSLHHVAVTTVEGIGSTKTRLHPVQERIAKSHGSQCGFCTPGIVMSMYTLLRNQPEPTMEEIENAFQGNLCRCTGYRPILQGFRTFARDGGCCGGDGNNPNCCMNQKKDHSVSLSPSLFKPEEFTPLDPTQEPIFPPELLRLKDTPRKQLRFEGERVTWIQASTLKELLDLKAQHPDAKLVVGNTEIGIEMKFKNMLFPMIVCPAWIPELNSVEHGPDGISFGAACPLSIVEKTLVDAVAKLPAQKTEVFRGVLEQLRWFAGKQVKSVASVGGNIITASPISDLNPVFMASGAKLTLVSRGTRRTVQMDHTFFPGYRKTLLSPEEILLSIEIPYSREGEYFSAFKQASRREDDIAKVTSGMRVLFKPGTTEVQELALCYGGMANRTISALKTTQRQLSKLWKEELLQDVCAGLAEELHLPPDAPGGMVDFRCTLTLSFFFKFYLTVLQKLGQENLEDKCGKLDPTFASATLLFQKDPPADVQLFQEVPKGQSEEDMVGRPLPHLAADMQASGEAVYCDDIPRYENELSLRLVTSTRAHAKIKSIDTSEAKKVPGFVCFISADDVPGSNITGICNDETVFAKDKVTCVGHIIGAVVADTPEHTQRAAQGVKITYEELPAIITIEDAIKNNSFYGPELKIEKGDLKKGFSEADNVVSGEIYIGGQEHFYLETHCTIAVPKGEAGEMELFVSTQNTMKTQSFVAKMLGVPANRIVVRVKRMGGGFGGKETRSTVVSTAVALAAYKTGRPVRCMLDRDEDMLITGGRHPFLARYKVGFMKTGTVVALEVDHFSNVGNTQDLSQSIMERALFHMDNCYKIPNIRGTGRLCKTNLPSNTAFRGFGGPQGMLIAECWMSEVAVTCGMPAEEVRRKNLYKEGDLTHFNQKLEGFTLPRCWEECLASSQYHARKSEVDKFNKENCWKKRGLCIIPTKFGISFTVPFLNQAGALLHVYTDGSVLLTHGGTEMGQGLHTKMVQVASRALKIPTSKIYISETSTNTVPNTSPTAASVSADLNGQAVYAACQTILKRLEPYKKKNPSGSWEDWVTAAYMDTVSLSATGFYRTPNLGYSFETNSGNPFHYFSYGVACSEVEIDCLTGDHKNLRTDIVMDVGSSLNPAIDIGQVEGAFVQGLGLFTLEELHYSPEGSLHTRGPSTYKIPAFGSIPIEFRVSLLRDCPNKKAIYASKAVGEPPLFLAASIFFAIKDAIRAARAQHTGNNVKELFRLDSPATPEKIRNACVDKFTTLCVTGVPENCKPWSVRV

| xanthine oxidase inhibitory activity, fold higher than allopurinol | SMILES |
| --- | --- |
| 17 fold | O=c1c(O)c(-c2ccc(O)c(O)c2)oc2c(O)c(O)ccc12 [melanoxetin, 3,7,8,3′,4′-pentahydroxyflavone] |
| 63 fold | O=C(/C=C/c1ccc(O)c(O)c1)c1ccc(O)c(O)c1O [okanin, 3,4,2′,3′,4′-pentahydroxy trans-chalcone] |
